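Cultured in 96-well plates, cells were exposed to test compound for 48 hours across five concentrations. Abbreviation: GI50, concentration required for 50% inhibition of growth. At the TGI there is no net growth.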
Tests used:
Assay in all cases: NCI tumour cell line growth inhibition, 48 h
[1] = tested on: COLO 205 colon
[2] = tested on: HT29 colon
[3] = tested on: MCF7 breast
[4] = tested on: NCI/ADR-RES ovarian
[5] = tested on: MDA-MB-435
[6] = tested on: NCI-H460 lung
[7] = tested on: SF-539 CNS
[8] = tested on: IGROV1 ovarian
[9] = tested on: SNB-75 CNS
[10] = tested on: A498 renal

SMILES	GI50 [1] [µM]	TGI [1] [µM]	GI50 [2] [µM]	TGI [3] [µM]	GI50 [4] [µM]	TGI [5] [µM]	GI50 [6] [µM]	TGI [6] [µM]	TGI [7] [µM]	TGI [2] [µM]	GI50 [3] [µM]	TGI [4] [µM]	GI50 [5] [µM]	GI50 [8] [µM]	TGI [8] [µM]	TGI [9] [µM]	TGI [10] [µM]	GI50 [10] [µM]	GI50 [9] [µM]	GI50 [7] [µM]
COc1ccc2c(c1)C(=O)CCc1cc(OC)c(OC)c(OC)c1-2	< 0.01	16.9	< 0.01	> 100	< 0.01	0.0717	< 0.01	> 100	87.1	–	–	–	–	–	–	–	–	–	–	–
[N-]=[N+]=NCCCn1c2c(c3ccc([N+](=O)[O-])cc3c1=O)C(=O)c1ccccc1-2	–	–	> 100	> 100	> 100	> 100	8.65	> 100	–	> 100	4.19	> 100	> 100	> 100	> 100	–	–	–	–	–
Cc1ccc(S(=O)(=O)N=Nc2c(O)[nH]c3cc(O)c(C(=O)O)cc23)cc1	–	> 100	–	> 100	–	> 100	–	> 100	–	> 100	–	> 100	–	–	> 100	> 100	> 100	–	–	–
O=NNc1ccc2ccccc2n1	–	–	–	> 100	–	> 100	–	> 100	> 100	> 100	–	> 100	–	–	> 100	> 100	> 100	–	–	–
CC(C)CNc1nc(-c2ccccc2Cl)nc2ccccc12	20.3	50	–	47.7	17.8	30.8	18.3	36.1	–	–	22.6	42.6	16.5	19.7	> 100	–	32.6	18.5	–	–
Nc1ncc(-c2cnn(C3CCNCC3)c2)cc1-c1nc2cc(Cl)ccc2o1	1.41	2.91	0.352	2.68	–	3.36	1.68	3.28	2.91	1.25	1.14	–	1.77	1.04	2.43	3.06	3.12	1.71	1.65	1.55
Cc1ccc(S(=O)(=O)OC2CC=CC2)cc1	–	> 100	–	–	–	–	–	> 100	–	> 100	–	–	–	–	> 100	> 100	–	–	–	–
O=C1N/C(=C\[N+](=O)[O-])c2ccccc21	–	> 100	–	–	–	–	–	> 100	> 100	> 100	–	–	–	–	> 100	93.3	> 100	–	–	–
CC1(O)C(C)(O)C2(C)O[Te]3(OC12C)OC1(C)C(C)(O)C(C)(O)C1(C)O3 (centres undefined)	–	> 100	–	–	–	–	–	47.9	> 100	> 100	–	–	–	–	35.7	> 100	–	–	–	–
CCOC(=O)[CH-]C(=O)C12CC3CC(CC(C3)C1)C2.CCOC(=O)[CH-]C(=O)C12CC3CC(CC(C3)C1)C2.CC[O-].CC[O-].[Ti+4]	> 100	> 100	> 100	–	–	–	> 100	> 100	> 100	> 100	–	–	–	> 100	> 100	> 100	> 100	> 100	36.9	> 100
O=C(Nc1ccc(Cl)cc1)C1C(=O)C(=O)N(c2ccc(Cl)cc2)C1=O (centres undefined)	–	> 100	–	–	–	–	–	> 100	> 100	> 100	–	–	–	–	> 100	> 100	> 100	–	–	–
O=C1NC(=S)S/C1=C/c1ccc2c(c1)OCO2	> 100	> 100	> 100	> 100	> 100	> 100	> 100	> 100	> 100	> 100	> 100	> 100	> 100	27.3	> 100	–	> 100	28.7	–	> 100
C=C1c2c(C)nn(-c3ccc(C#CCOC4OC(CO)C(O)C(O)C4O)cc3)c2N(C)C23C[C@H]1C1(C)c4c(C)nn(-c5ccc(C#CCOC6OC(CO)C(O)C(O)C6O)cc5)c4N(C)C(C)(C[C@H]12)C3 (some centres undefined)	1.47	2.88	1.63	3.2	5.43	3.77	1.69	3.85	3.33	4.21	1.38	47	1.67	1.56	3.95	–	3.18	1.5	–	1.78
C=CC[P@]1(=O)O[C@H](c2ccccc2)[C@H](C)N1C	–	–	–	–	–	–	–	> 100	> 100	> 100	–	–	–	–	> 100	> 100	> 100	–	–	–
CCCCCCCCCCCCCP(=O)(O)O	–	> 100	–	–	–	–	–	> 100	> 100	> 100	–	–	–	–	> 100	> 100	> 100	–	–	–
O=C(O)CCCc1ccc2ccc3ccccc3c2c1	–	> 100	–	> 100	–	> 100	–	> 100	–	> 100	–	> 100	–	–	> 100	87.4	> 100	–	–	–
COc1ccc(C=O)cc1O[Si](C)(C)C(C)(C)C	–	> 100	–	–	–	–	–	> 100	> 100	> 100	–	–	–	–	> 100	> 100	> 100	–	–	–
N#CCC(=O)N/N=C1/C(=O)N(c2ccc(Cl)cc2)C(=O)C(=O)C1c1nc2ccccc2s1 (centres undefined)	–	> 100	–	–	–	–	–	–	–	> 100	–	–	–	–	> 100	63.7	> 100	–	–	–
NC1=NN(c2ccccc2)C(=O)C1C(=O)CCC(=O)Nc1cccc(Cl)c1 (centres undefined)	–	> 100	–	–	–	–	–	> 100	> 100	> 100	–	–	–	–	> 100	> 100	> 100	–	–	–
NC(CCCC(N)P(=O)(O)O)P(=O)(O)O (centres undefined)	–	> 100	–	–	–	–	–	> 100	> 100	> 100	–	–	–	–	> 100	> 100	> 100	–	–	–
